# Assay results from BindingDB's records for doi:10.1021/jm801354e (University of Illinois At Chicago, 2009).
# pEC50, pKi: −log10 of the molar value. Structures can show the parent of a compound that is named as a salt.
# Experiments:
# [1] = molecular target: Sodium-dependent dopamine transporter (Homo sapiens, UniProt Q01959); assay: Displacement of [3H]WIN-35428 from DAT
# [2] = molecular target: Sodium-dependent noradrenaline transporter (Homo sapiens, UniProt P23975); assay: Displacement of [3H]nisoxetine from NET
# [3] = molecular target: T1, 5-hydroxytryptamine receptor 2B (Homo sapiens, UniProt P41595); assay: Agonist activity at human 5HT2B receptor expressed in HEK293 cells assessed as calcium flux by FLIPR assay
# [4] = molecular target: T1, 5-hydroxytryptamine receptor 2B; assay: Displacement of [3H]LSD from human 5HT2B receptor
# [5] = molecular target: Sodium-dependent serotonin transporter (Homo sapiens, UniProt P31645); assay: Displacement of [3H]citalopram from SERT
# [6] = molecular target: T2, 5-hydroxytryptamine receptor 2A (Homo sapiens, UniProt P28223); assay: Displacement of [3H]ketanserin from human 5HT2A receptor
# [7] = molecular target: T3, 5-hydroxytryptamine receptor 2C (Homo sapiens, UniProt P28335); assay: Displacement of [3H]mesulergine from 5HT2C receptor
# T3 sequence (P28335 whole entry): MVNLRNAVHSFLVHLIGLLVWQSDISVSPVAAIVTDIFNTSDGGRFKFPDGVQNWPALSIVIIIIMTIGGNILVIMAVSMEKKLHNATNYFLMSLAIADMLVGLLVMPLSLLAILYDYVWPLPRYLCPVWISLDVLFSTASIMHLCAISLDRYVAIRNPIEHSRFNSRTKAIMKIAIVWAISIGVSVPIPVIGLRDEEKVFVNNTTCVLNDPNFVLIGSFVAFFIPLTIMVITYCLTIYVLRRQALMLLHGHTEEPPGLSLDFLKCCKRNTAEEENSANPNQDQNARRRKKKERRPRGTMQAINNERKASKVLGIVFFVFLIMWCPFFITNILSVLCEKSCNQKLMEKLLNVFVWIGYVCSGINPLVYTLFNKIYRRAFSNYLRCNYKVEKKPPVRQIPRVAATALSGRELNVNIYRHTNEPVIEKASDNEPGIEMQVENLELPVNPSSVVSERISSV
# [8] = molecular target: T3, 5-hydroxytryptamine receptor 2C; assay: Agonist activity at human 5HT2C receptor expressed in HEK293 cells assessed as calcium flux by FLIPR assay
# [9] = molecular target: T2, 5-hydroxytryptamine receptor 2A; assay: Agonist activity at human 5HT2A receptor expressed in HEK293 cells assessed as calcium flux by FLIPR assay
# T1 sequence (P41595 whole entry): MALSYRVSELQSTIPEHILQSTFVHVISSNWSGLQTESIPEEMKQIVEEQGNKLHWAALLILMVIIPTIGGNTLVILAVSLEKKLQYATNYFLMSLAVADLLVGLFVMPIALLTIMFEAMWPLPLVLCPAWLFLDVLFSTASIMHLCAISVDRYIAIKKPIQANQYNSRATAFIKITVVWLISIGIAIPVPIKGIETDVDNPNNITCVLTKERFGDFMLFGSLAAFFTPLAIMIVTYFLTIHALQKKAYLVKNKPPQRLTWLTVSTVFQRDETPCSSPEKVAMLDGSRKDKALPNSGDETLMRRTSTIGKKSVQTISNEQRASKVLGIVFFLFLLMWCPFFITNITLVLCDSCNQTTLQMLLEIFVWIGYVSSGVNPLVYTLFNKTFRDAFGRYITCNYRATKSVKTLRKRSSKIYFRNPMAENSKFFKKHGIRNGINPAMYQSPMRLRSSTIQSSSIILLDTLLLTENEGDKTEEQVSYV
# T2 sequence (P28223 whole entry): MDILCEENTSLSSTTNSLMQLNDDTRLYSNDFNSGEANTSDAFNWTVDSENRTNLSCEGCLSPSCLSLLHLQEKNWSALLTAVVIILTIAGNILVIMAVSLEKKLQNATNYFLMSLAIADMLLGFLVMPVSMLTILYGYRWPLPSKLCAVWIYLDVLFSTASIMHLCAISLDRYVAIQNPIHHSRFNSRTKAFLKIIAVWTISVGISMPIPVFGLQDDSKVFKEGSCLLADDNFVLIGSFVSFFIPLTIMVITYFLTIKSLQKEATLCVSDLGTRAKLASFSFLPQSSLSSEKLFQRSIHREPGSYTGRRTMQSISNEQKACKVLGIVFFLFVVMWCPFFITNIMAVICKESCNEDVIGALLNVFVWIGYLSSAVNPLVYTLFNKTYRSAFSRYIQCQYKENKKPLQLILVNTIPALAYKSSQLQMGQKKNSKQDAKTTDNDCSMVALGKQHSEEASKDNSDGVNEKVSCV
# Chain of Sodium-dependent serotonin transporter (P31645 whole entry): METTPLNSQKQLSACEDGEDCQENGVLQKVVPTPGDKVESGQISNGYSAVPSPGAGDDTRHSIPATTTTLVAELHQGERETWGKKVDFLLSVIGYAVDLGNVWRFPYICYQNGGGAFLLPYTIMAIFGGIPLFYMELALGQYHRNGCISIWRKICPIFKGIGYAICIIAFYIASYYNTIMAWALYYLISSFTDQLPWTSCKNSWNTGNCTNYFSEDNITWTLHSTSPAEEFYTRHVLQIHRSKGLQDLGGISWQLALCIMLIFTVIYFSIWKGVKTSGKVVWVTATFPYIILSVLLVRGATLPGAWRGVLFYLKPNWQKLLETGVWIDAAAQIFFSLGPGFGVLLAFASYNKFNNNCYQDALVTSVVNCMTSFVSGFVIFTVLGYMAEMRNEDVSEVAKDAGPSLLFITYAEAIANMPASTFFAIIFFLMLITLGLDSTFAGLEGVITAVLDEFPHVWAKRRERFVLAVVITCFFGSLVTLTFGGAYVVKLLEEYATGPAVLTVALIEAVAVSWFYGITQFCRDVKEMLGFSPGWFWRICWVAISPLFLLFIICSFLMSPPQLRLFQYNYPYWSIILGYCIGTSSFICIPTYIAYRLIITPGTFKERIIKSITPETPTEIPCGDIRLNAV
# Chain of Sodium-dependent dopamine transporter (Q01959 whole entry): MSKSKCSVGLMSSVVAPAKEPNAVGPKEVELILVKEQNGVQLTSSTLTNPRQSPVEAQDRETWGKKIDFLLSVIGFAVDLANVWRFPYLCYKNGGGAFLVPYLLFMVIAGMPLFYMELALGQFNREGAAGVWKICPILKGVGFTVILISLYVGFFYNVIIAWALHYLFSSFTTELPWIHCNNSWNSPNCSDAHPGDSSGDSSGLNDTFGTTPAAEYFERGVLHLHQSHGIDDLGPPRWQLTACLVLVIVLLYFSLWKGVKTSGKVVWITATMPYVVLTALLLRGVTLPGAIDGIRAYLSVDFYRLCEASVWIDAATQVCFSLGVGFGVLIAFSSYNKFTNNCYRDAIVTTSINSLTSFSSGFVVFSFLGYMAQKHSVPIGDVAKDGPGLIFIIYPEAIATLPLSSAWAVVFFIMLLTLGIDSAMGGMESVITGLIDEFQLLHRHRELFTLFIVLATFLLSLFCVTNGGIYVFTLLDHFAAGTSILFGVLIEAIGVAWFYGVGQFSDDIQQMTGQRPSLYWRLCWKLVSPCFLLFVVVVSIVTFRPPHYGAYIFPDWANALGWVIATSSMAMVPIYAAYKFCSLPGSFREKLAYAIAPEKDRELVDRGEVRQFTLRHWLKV
# Chain of Sodium-dependent noradrenaline transporter (P23975 whole entry): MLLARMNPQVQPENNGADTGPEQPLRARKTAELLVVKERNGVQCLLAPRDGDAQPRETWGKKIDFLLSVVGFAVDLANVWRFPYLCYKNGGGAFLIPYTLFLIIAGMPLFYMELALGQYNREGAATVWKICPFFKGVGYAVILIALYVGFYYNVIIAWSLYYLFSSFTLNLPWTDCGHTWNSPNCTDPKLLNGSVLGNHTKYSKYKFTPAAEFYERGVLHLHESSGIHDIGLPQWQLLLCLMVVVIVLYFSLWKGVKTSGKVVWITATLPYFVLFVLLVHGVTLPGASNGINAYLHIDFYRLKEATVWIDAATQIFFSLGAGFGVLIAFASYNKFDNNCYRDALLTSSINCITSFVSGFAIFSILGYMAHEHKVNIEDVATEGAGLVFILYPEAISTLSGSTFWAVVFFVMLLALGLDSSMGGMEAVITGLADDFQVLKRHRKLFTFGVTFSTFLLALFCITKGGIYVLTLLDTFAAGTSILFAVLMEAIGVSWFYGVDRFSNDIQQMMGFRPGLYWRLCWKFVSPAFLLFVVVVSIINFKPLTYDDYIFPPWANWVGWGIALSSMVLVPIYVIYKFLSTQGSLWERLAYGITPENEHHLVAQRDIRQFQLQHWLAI
smiles,measurement,setting,value
NC[C@H]1C[C@@H]1c1ccc(F)cc1 (relative stereo) [trans-[2-(4-Fluorophenyl)cyclopropyl]methylamine Hydrochloride],pKi,[1],5.49
same,pKi,[2],5.17
same,pEC50,[3],7.68
same,pKi,[4],7.05
same,pKi,[5],5.57
same,pKi,[6],5.56
same,pKi,[7],6.62
same,pEC50,[8],8.27
same,pEC50,[9],6.29
